# What was measured:
# [1] = tested on: hippocampal slice cultures; conditions: cited from earlier work
# [2] = tested on: cerebellar granule neurons; conditions: cited from earlier work
# striatal neurons = conditions: cited from earlier work
# iTat mice [3] = assay: Morris Water Maze (MWZ), training stage and probe test; type: in vivo, mouse
# Source text: (§1) Doxycycline (Dox)-inducible and astrocyte-specific HIV-1 Tat-transgenic mice (iTat) were generated as previously described.^38 Wild-type (Wt, C57BL/6) and α7 nAChR knockout mice (α7^−/−, B6.129S7-Chrna^7tm1Ba/J) were purchased from the Jackson Laboratory (Bar Harbor, ME). All the animal procedures were approved by the Institutional Animal Care and Use Committee. Mice were housed with a 12-hour light and 12-hour dark photoperiod and provided water and food ad libitum. α7^−/− iTat mice were generated by cross breeding iTat mice with α7^−/− mice. α7^−/− genotyping was slightly modified with the JumpStart™ Taq DNA Polymerase-based PCR (JumpStart™ Taq DNA Polymerase, Sigma, catalog #D9307). […] Mice of 10-14 weeks old with body weights of 20-35 grams were fed with Dox-containing diet (0.625 g/kg, Envigo, catalog #TD.01306) as stated.
# (§2) Open Field Test (OPT) and Morris Water Maze (MWZ) were performed sequentially using a computerized video tracking system (Anymaze, Stoelting) to determine the spontaneous locomotor activity and spatial learning and memory, respectively. For OPT, each mouse was allowed to move freely around a clear acrylic chamber (40.5×40.5×30.5 cm) for 10 minutes. Travel distance and maximum speed was determined by the AnyMaze software. For MWZ, a circle pool (1.2 m diameter) surrounded with a curtain was divided into four equal quadrants, and four signs with different shape were fixed onto the middle of each quadrant wall above the opaque water (24±1° C.). A hidden platform (1.5 cm below water surface) was put into a certain quadrant. Two stages consisting of 5-day training and probe test were carried out. In the training stage, four trials with a 15-20 minute interval were conducted in the every-day training, and for each trial mice were allowed to freely seek the platform within 90 seconds right after they were randomly put into one quadrant facing to the pool wall. If the mice found the platform within 90 seconds, 10 seconds would be added to allow them staying on the platform for memorizing, however, if failed, they would be directed toward the platform and allowed to stay on it for 15 seconds. Mice that were immobile or floating and unable to find the platform during the training stages were excluded from the experiments. Probe test was carried out on the next day following the 5-day training stage with a 60 seconds trial, and the platform was removed to prevent the mice from climbing onto it during the testing. One day after the behavioral tests, mice were euthanized and the brains were harvested.
# To determine if α7 nAChR is involved in HAND, iTat mice were fed with Dox-containing food pellets for 7 days, […], and then subjected to open field test (OPT) for locomotor activity on day 14, and Morris Water Maze test (MWZ) for learning and spatial memory on day 15-20, and euthanized to harvest tissues on day 21 (FIG. 1A). Dox-containing food pellet feeding and PAM injection continued during the next 7 days of behavioral tests. To minimize the effects of injection on behavioral tests, PAM was injected 5 hours after each behavioral test.
# iTat mice [4] = assay: Western blotting of SYP, PSD-95, GFAP, Iba-1 in cortex and hippocampus; type: in vivo, mouse; conditions: CORT and HIP, SB239063-treated iTat vs Wt
# Source text: as §1
# A RIPA buffer (50 mM Tris.HCl, pH 8.0, 280 mM NaCl, 0.5% NP-40, 1% C24H39NaO4, 0.2 mM EDTA, 2 mM EGTA and 10% glycerol) supplemented with protease inhibitors (Millipore-Sigma, catalog #S8830) and phosphatase inhibitors (Millipore-Sigma, catalog #4906845001) was used to lyse the brain tissues and cultured cells with brief sonication on ice. Protein concentrations of the lysates were determined using a Bio-Rad DC protein assay kit (Bio-Rad, catalog #5000111). Lysates were denatured in the SDS-PAGE loading buffer at 100° C. for 10 min, then electrophoretically separated by 8-15% SDS-PAGE, blotted onto 0.45 μm polyvinylidene fluoride membrane (GE Healthcare Life Sciences, catalog #10600023), and probed using appropriate antibodies against PSD-95 (Abcam, catalog #ab18258, and 1:2000 dilution), SYP (Abcam, catalog #ab8049, and 1:1000 dilution), Iba-1 (Wako, catalog #016-20001, and 1:500 dilution) and GFAP (DAKO, catalog #z330s, and 1:2000 dilution), p-p38 (Santa Cruz, catalog #sc-166182, and 1:1000 dilution), p38 (Santa cruz, catalog #sc-535, and 1:1000 dilution), p-JNK (Santa cruz, catalog #sc-6254, and 1:1000 dilution), JNK (Santa cruz, catalog #sc-571, and 1:1000 dilution), p-ERK (Santa cruz, catalog #sc-7383, and 1:1000 dilution), and ERK (Santa cruz, catalog #sc-514302, and 1:1000 dilution), α7 nAChR (Alomone, catalog #ANC-007, and 1:1000 dilution) and β-actin (Sigma-Aldrich, catalog #A1978, and 1:2000 dilution). A Bio-Rad ChemicDoc imaging system (Bio-Rad) and Image J were used for image capturing and analysis, respectively. […]
# iTat mice [5] = assay: Open Field Test (OPT), locomotor activity; type: in vivo, mouse
# Source text: as §1, §2
# To determine if α7 nAChR is involved in HAND, iTat mice were fed with Dox-containing food pellets for 7 days, injected s.c. with a well-studied and highly specific positive allosteric modulator (PAM) PNU-120596 of α7 nAChR^73,74 […], and then subjected to open field test (OPT) for locomotor activity on day 14, and Morris Water Maze test (MWZ) for learning and spatial memory on day 15-20, and euthanized to harvest tissues on day 21 (FIG. 1A). Dox-containing food pellet feeding and PAM injection continued during the next 7 days of behavioral tests. To minimize the effects of injection on behavioral tests, PAM was injected 5 hours after each behavioral test.
# [6] = iTat vs Wt mice, SB239063 15 mg/kg/day i.p.
smiles,measurement,setting,value
Oc1ccc(-c2nc(-c3ccc(F)cc3)c(-c3ccncc3)[nH]2)cc1 [SB202190],Tat-induced inflammation and oxidation,[1],decreased
C[S+]([O-])c1ccc(-c2nc(-c3ccc(F)cc3)c(-c3ccncc3)[nH]2)cc1 (stereo not drawn) [SB203580],Tat-induced apoptosis,[2],prevented
same,Tat-induced neurite losses and cell death,striatal neurons,failed to block
COc1nccc(-c2c(-c3ccc(F)cc3)ncn2C2CCC(O)CC2)n1 (stereo not drawn) [SB239063],"MWZ probe test platform entries, time at/distance to target quadrant, time at/distance to platform",iTat mice [3]; SB239063-treated female iTat mice vs vehicle-treated female Wt and iTat and SB239063-treated female Wt,"fewer platform entries, shorter time at target quadrant, distance to target quadrant, time at platform, and distance to platform"
same,"Cognition, learning and memory effects",iTat mice [3]; Wt mice treated with SB239063,Some beneficial effects
same,MWZ probe test latency to platform,"iTat mice [3]; female iTat mice, SB239063 vs vehicle",longer latency to platform than vehicle-treated female iTat mice
same,MWZ training stage cumulative distance,iTat mice [3]; [6],difference between SB239063-treated male iTat and male Wt mice on day 2 and 3 and female iTat and Wt mice on day 4
same,MWZ training stage escape latency,iTat mice [3]; [6],"even longer escape latency than Wt mice, with differences on day 3 and 4 for male mice"
same,"MWZ probe test platform entries, distance to target quadrant, distance to platform","iTat mice [3]; male iTat vs male Wt mice, SB239063 15 mg/kg/day i.p.","fewer platform entries, shorter distance to target quadrant and distance to platform than Wt male mice"
same,"SYP, GFAP and Iba-1 expression",iTat mice [4]; female mice,"lower SYP, GFAP and Iba-1 with differences than SB239063-treated Wt mice"
same,PSD-95 expression,iTat mice [4]; male and female,lower PSD-95 than SB239063-treated Wt mice
same,SYP and GFAP expression,iTat mice [4]; male mice,no differences of SYN and GFAP (except HIP) from SB239063-treated Wt mice
same,"OPT travel distance and maximum speed, Wt vs iTat mice","iTat mice [5]; SB239063 15 mg/kg/day i.p., male and female",no significant differences in travel distance and maximum speed between Wt and iTat mice
same,"OPT performance, female vs male mice",iTat mice [5]; Wt and iTat mice in response to SB239063,both female Wt and female iTat mice performed better in the OPT than male Wt and male iTat mice
same,"OPT travel distance, SB239063-treated vs vehicle-treated","iTat mice [5]; female Wt and iTat mice, 15 mg/kg/day i.p.",difference of travel distance between SB239063-treated and vehicle-treated female mice
